This note sets out measurements from US10487068B2, “Pyridazine derivatives as RORc modulators” (Genentech, Inc., priority 2015, dated 2019).

The assay addresses T1, RORc ligand binding domain (Homo sapiens, UniProt P51449).
T1 sequence (P51449 269-508 limits assumed): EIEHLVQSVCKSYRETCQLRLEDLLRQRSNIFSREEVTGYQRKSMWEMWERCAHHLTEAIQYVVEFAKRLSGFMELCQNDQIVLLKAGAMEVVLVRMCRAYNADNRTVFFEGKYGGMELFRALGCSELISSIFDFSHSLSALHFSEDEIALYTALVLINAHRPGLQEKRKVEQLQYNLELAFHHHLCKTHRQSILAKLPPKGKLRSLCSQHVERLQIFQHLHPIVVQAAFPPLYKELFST
As to the kind of experiment: In Vitro RORc Ligand Binding Assay. The note with it: RORc IC50, radioligand 25-[3H]hydroxycholesterol 6 nM; 0.6 ug/mL RORc receptor; 3 h at 25° C.

Regarding `CC1(C)[C@H]2CC[C@]1(c1cncc(C(=O)NCC#N)n1)c1nnc(-c3c(F)cccc3F)cc12` [Example 92, N-(cyanomethyl)-6-((5R,8S)-3-(2,6-difluorophenyl)-9,9-dimethyl-5,6,7,8-tetrahydro-5,8-methanocinnolin-8-yl)pyrazine-2-carboxamide], the IC50 (commonly the concentration that inhibits the measured activity by half) came to 0.0206 µM.

In turn, `CC1(C)[C@H]2CC[C@]1(c1cncc(C(=O)N[C@H]3C[C@@H](O)C3)n1)c1nnc(-c3c(F)cccc3F)cc12` [Example 93, 6-((5R,8S)-3-(2,6-difluorophenyl)-9,9-dimethyl-5,6,7,8-tetrahydro-5,8-methanocinnolin-8-yl)-N-((1s,3R)-3-hydroxycyclobutyl)pyrazine-2-carboxamide] registered an IC50 of 0.0318 µM. `CC1(C)[C@H]2CC[C@]1(c1cncc(C(=O)N[C@H]3C[C@H](O)C3)n1)c1nnc(-c3c(F)cccc3F)cc12` [Example 94, 6-((5R,8S)-3-(2,6-difluorophenyl)-9,9-dimethyl-5,6,7,8-tetrahydro-5,8-methanocinnolin-8-yl)-N-((1r,3S)-3-hydroxycyclobutyl)pyrazine-2-carboxamide] registered an IC50 of 0.0215 µM. With `CC1(C)[C@H]2CC[C@]1(c1nccc(C(=O)NCCO)n1)c1nnc(-c3c(F)cccc3F)cc12` [Example 95, 2-((5R,8R)-3-(2,6-difluorophenyl)-9,9-dimethyl-5,6,7,8-tetrahydro-5,8-methanocinnolin-8-yl)-N-(2-hydroxyethyl)pyrimidine-4-carboxamide] the figure was 0.117 µM; with `CC1(C)[C@H]2CC[C@]1(c1cccc(C(=O)Nc3c[nH]c(=O)cn3)n1)c1nnc(-c3c(F)cccc3F)cc12` [Example 96, 6-((5R,8S)-3-(2,6-difluorophenyl)-9,9-dimethyl-5,6,7,8-tetrahydro-5,8-methanocinnolin-8-yl)-N-(5-oxo-4,5-dihydropyrazin-2-yl)picolinamide], 0.0343 µM; with `CC1(C)[C@H]2CC[C@]1(c1nccc(NCCO)n1)c1nnc(-c3c(F)cccc3F)cc12` [Example 97, 2-((2-((5R,8R)-3-(2,6-difluorophenyl)-9,9-dimethyl-5,6,7,8-tetrahydro-5,8-methanocinnolin-8-yl)pyrimidin-4-yl)amino)ethanol], 0.0983 µM. With `CC1(C)[C@H]2CC[C@]1(c1ccnc(NCCO)n1)c1nnc(-c3c(F)cccc3F)cc12` [Example 98], the IC50 was 0.0154 µM.

Molecule `CC1(C)[C@@H]2CC[C@@]1(c1cccc(C(=O)NCCO)n1)c1nnc(-c3c(F)cccc3F)cc12` [Example 99, 6-((5S,8R)-3-(2,6-difluorophenyl)-9,9-dimethyl-5,6,7,8-tetrahydro-5,8-methanocinnolin-8-yl)-N-(2-hydroxyethyl)picolinamide] registered an IC50 of 0.0409 µM.

`C[C@H](O)CNC(=O)c1cccc([C@]23CC[C@H](c4cc(-c5c(F)cccc5F)nnc42)C3(C)C)n1` [Example 100, 6-((5S,8R)-3-(2,6-difluorophenyl)-9,9-dimethyl-5,6,7,8-tetrahydro-5,8-methanocinnolin-8-yl)-N-((S)-2-hydroxypropyl)picolinamide] came in with an IC50 of 0.0413 µM. Under `CC(=O)Nc1cccc([C@@]23CC[C@@H](c4cc(-c5c(F)cccc5F)nnc42)C3(C)C)n1` [Example 101, N-(6-((5R,8S)-3-(2,6-difluorophenyl)-9,9-dimethyl-5,6,7,8-tetrahydro-5,8-methanocinnolin-8-yl)pyridin-2-yl)acetamide] stands 0.0219 µM. With `Cc1nnc(-c2cccc([C@@]34CC[C@@H](c5cc(-c6c(F)cccc6F)nnc53)C4(C)C)n2)o1` [Example 102, 2-(6-((5R,8S)-3-(2,6-difluorophenyl)-9,9-dimethyl-5,6,7,8-tetrahydro-5,8-methanocinnolin-8-yl)pyridin-2-yl)-5-methyl-1,3,4-oxadiazole] the figure was 0.0216 µM. `CC1(C)[C@H]2CC[C@]1(c1cncc(NC(=O)C3COC3)n1)c1nnc(-c3c(F)cccc3F)cc12` [Example 103, N-(6-((5R,8S)-3-(2,6-difluorophenyl)-9,9-dimethyl-5,6,7,8-tetrahydro-5,8-methanocinnolin-8-yl)pyrazin-2-yl)oxetane-3-carboxamide] displayed a half-maximal inhibitory concentration (IC50) of 0.0291 µM. In turn, `CC1(C)[C@H]2CC[C@]1(c1cncc(-c3nnc[nH]3)n1)c1nnc(-c3c(F)cccc3F)cc12` [Example 104] showed an IC50 of 0.0259 µM. As for `Cc1nnc(-c2cncc([C@@]34CC[C@@H](c5cc(-c6c(F)cccc6F)nnc53)C4(C)C)n2)[nH]1` [Example 105], the IC50 stood at 0.0309 µM. `CC1(C)[C@H]2CC[C@]1(c1cncc(C(=O)NCC3(O)COC3)n1)c1nnc(-c3c(F)cccc3F)cc12` [Example 106, 6-((5R,8S)-3-(2,6-difluorophenyl)-9,9-dimethyl-5,6,7,8-tetrahydro-5,8-methanocinnolin-8-yl)-N-((3-hydroxyoxetan-3-yl)methyl)pyrazine-2-carboxamide]: the IC50 came out at 0.0311 µM. As for `CC1(C)[C@H]2CC[C@]1(c1cncc(C(=O)NC[C@@H](O)CO)n1)c1nnc(-c3c(F)cccc3F)cc12` [Example 107, 6-((5R,8S)-3-(2,6-difluorophenyl)-9,9-dimethyl-5,6,7,8-tetrahydro-5,8-methanocinnolin-8-yl)-N-((R)-2,3-dihydroxypropyl)pyrazine-2-carboxamide], the IC50 amounted to 0.0695 µM. With `CC1(C)[C@H]2CC[C@]1(c1cncc(C(=O)NC[C@H](O)CO)n1)c1nnc(-c3c(F)cccc3F)cc12` [Example 108, 6-((5R,8S)-3-(2,6-difluorophenyl)-9,9-dimethyl-5,6,7,8-tetrahydro-5,8-methanocinnolin-8-yl)-N-((S)-2,3-dihydroxypropyl)pyrazine-2-carboxamide] the figure was 0.0475 µM; with `C[C@@H](O)CNC(=O)c1cncc([C@]23CC[C@H](c4cc(-c5c(F)cccc5F)nnc42)C3(C)C)n1` [Example 109, 6-((5S,8R)-3-(2,6-difluorophenyl)-9,9-dimethyl-5,6,7,8-tetrahydro-5,8-methanocinnolin-8-yl)-N-((R)-2-hydroxypropyl)pyrazine-2-carboxamide], 0.0198 µM; with `CC1(C)[C@H]2CC[C@]1(c1cncc(C(=O)NCCS(C)(=O)=O)n1)c1nnc(-c3c(F)cccc3F)cc12` [Example 110, 6-((5R,8S)-3-(2,6-difluorophenyl)-9.9-dimethyl-5,6,7,8-tetrahydro-5,8-methanocinnolin-8-yl)-N-(2-(methylsulfonyl)ethyl)pyrazine-2-carboxamide], 0.0514 µM.

In turn, `CC1(C)[C@H]2CC[C@]1(c1ccnc(NS(C)(=O)=O)n1)c1nnc(-c3c(F)cccc3F)cc12` [Example 111] registered an IC50 of 0.0414 µM. With `CC1(C)[C@H]2CC[C@]1(c1cccc(NC(=O)CO)n1)c1nnc(-c3c(F)cccc3F)cc12` [Example 112, N-(6-((5R,8S)-3-(2,6-difluorophenyl)-9,9-dimethyl-5,6,7,8-tetrahydro-5,8-methanocinnolin-8-yl)pyridin-2-yl)-2-hydroxyacetamide] the figure was 0.0137 µM; with `CC1(C)[C@H]2CC[C@]1(c1ccnc(C(N)=O)n1)c1nnc(-c3c(F)cccc3F)cc12` [Example 113], 0.0276 µM. With `C[C@H](O)CNC(=O)c1nccc([C@@]23CC[C@@H](c4cc(-c5c(F)cccc5F)nnc42)C3(C)C)n1` [Example 114] the figure was 0.0388 µM; with `C[C@@H](O)CNC(=O)c1nccc([C@@]23CC[C@@H](c4cc(-c5c(F)cccc5F)nnc42)C3(C)C)n1` [Example 115], 0.0632 µM.
